Like-named read-outs stand apart in the source and are kept apart here.
Tests used:
CHOK1-mαvβ3 cells = molecular target: T1, CHOK1-mαvβ3 cells (Mus musculus, UniProt O54890+P43406); assay: Cell adhesion assay (Epic) on vitronectin; type: cell-based; details: vitronectin matrix; in words
T1 construct: expressed in transfected cells
Method: (§1) For plate preparation, Epic 384-well assay plates (Corning #5040) were washed with OptiMEM (Gibco #31985-070) and coated with murine fibronectin (Abcam #ab92784) at a concentration of 0.1 μg/well for CHO-a5KO-mαvβ1 cells; murine vitronectin (Abcam #ab92727) at 0.075 μg/well for CHO-mαvβ3 cells; or murine vitronectin at 0.125 μg/well for CHO-mαvβ5 (all at a volume of 25 μl/well in OptiMEM), for 1 h. Coating solution was then removed by flicking and plates were washed with OptiMEM and blocked with 25 μl/well of assay buffer [1% Ovalbumin (Sigma #A5503-10G) in OptiMEM containing 1X Pen-Strep (Gibco #15140-148)]. A 5-min baseline reading was taken on a Corning Epic Plate Reader (Model: Epic BT-157900) before removing the assay buffer and adding cells pre-incubated with inhibitors. The Epic plate reader detects cellular mass redistribution (adhesion) on the plate surface as a picometer wavelength shift over time. […] Cells were incubated with the inhibitors for 1 h at RT with gentle rocking, after which 50 μL per well was transferred to the Epic assay plate, and a time course of cell adhesion was monitored for an additional 3 h.

CHOK1-mαvβ5 cells = molecular target: T2, CHOK1-mαvβ5 cells (Mus musculus, UniProt O70309+P43406); assay: Cell adhesion assay (Epic) on vitronectin; type: cell-based; details: vitronectin matrix; in words
T2 construct: expressed in transfected cells
Method: as §1

[1] = set-up: method as in PMID 15687321; details: humans; cited from earlier work
mouse αvβ1 = mouse αvβ1 (Mus musculus, UniProt P09055+P43406); assay: AlphaLISA integrin-ligand binding assay; type: biochemical; set-up: mαV 1 988; m β1 1 728; made in house; host or cells: Expi293; details: Fig. 4B; read-out: IC50 Mouse integrin AlphaLISA assays: mαvβ1
Method: (§2) In the AlphaLISA integrin assays, we used a HEPES based buffer (25 mM HEPES pH 7.4, 137 mM NaCl, 1 mM MgCl2, 1 mM MnCl2, 2 mM CaCl2, 2.7 mM KCl, and 0.05% Tween-20). Optimal assay conditions were determined with a titration of the reagents for signal noise ratio (S/N), linear range, etc. For the respective integrins, we used the final concentrations described in Supplemental Table S3. Briefly, the testing antibody (8 μL) was added as a 4x (of Final testing concentration) solution in the HEPES buffer described previously into a 384w AlphaPlate (Perkin Elmer #6005350). Then the integrin and ligand were added sequentially as 8x (4 μL each). Plates were sealed and incubated at room temperature for 2 h. Then 4 × acceptor bead solution (8 μL) was added, and the plates were resealed and incubated at RT for 1 h. Finally, 4 × (8 μL) donor beads solution was added in a darkened room and incubated for 45 min at room temperature. Plates were read on the Envision (Perkin Elmer) in AlphaScreen mode within 3 h of donor bead addition.
(§3) Supplemental Table S3. integrin AlphaLIS A assay reagents and conditions Human A l phal i sa Inte gri n A ssays: Fi nal Condi ti ons […]
(§4) ( batch de pe nde nt) anti body A l phaLi sa A cce ptor havb1 1. 4 nM 1. 0 nMα - Fi brone cti n human Fi brone cti n n/a A cce ptor be ads/ Pe rki n 10. 0 ug/ m 10. 0 ug/ m […]
(§5) havb3 3. 0 nM 10. […]

human αvβ8 = human αvβ8 (Homo sapiens, UniProt P06756+P26012); assay: AlphaLISA integrin-ligand binding assay; type: biochemical; set-up: hαV 1 992; hβ8 1 684; made in house; host or cells: Expi293
Method: as §2, §3, §4, §5

human αvβ6 = human αvβ6 (Homo sapiens, UniProt P06756+P18564); assay: AlphaLISA integrin-ligand binding assay; type: biochemical; set-up: hαV 1 992; hβ6 1 709; made in house; host or cells: Expi293
Method: as §2, §3, §4, §5

osteoporosis patients = tested on: osteoporosis patients; set-up: method as in PMID 15687321, PMID 20398037; details: 52 weeks; cited from earlier work
[2] = tested on: diabetic nephropathy model; set-up: method as in PMID 28971604; details: cited from earlier work

human αvβ8, sequence (P06756 31-992): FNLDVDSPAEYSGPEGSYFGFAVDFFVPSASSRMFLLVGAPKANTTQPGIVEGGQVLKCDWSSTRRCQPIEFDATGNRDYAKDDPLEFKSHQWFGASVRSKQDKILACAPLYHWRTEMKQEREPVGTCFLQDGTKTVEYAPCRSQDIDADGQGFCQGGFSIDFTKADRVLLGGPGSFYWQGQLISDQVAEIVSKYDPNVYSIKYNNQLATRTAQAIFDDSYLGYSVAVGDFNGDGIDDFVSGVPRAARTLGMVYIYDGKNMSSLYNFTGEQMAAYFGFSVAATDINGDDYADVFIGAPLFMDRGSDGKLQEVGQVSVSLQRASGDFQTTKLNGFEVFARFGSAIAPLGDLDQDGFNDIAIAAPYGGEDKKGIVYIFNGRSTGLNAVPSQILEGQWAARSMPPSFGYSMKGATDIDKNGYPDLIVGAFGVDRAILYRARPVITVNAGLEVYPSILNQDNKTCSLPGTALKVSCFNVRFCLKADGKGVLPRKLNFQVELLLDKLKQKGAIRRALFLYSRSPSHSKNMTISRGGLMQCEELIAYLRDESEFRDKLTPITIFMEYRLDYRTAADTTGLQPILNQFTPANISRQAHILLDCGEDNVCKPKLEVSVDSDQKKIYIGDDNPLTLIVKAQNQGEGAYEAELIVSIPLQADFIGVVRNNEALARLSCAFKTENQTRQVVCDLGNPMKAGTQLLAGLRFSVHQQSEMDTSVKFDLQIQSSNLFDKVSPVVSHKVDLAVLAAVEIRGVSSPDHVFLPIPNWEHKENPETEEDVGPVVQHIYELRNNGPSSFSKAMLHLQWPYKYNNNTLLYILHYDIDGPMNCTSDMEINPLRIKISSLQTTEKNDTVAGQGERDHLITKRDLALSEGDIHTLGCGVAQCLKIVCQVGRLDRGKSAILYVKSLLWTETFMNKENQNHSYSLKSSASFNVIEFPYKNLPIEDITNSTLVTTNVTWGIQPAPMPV
human αvβ8, sequence (P26012 43-684): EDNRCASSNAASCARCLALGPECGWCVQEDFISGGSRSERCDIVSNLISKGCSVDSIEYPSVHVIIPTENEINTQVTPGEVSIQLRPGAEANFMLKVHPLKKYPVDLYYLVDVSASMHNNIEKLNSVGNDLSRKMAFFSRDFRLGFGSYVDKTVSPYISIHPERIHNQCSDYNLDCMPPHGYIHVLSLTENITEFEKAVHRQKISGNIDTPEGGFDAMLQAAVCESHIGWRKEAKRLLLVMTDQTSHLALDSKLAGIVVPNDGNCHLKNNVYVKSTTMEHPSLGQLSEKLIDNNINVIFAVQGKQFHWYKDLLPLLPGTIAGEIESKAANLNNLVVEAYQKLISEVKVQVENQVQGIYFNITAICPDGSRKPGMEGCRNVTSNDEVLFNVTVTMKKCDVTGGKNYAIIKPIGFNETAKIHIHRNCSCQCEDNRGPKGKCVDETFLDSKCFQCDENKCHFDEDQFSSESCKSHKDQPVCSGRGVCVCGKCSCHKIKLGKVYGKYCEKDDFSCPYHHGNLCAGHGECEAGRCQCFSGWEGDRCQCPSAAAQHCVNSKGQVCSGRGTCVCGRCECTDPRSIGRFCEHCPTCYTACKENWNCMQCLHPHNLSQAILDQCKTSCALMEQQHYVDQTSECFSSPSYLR
human αvβ6, sequence (P06756 31-992): as the sequence (P06756 31-992) above
human αvβ6, sequence (P18564 22-709): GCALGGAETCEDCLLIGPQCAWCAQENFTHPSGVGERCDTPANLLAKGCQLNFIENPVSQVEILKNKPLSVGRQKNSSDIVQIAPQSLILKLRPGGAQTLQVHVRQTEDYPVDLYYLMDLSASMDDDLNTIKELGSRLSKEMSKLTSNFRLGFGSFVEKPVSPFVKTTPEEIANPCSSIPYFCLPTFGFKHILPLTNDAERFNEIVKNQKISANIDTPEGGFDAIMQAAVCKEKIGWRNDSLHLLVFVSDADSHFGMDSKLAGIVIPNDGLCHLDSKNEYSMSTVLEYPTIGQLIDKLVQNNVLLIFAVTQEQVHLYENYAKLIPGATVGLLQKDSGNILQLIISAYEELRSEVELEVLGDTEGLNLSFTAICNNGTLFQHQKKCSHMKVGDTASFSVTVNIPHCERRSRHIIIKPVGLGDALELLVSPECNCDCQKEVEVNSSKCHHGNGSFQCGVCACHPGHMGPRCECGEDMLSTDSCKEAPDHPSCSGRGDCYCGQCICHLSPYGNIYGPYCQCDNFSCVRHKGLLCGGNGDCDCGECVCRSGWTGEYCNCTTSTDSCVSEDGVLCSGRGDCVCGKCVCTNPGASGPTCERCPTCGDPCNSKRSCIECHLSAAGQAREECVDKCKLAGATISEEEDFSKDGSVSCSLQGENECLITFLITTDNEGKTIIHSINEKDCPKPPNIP
mouse αvβ1, sequence (P43406 31-988): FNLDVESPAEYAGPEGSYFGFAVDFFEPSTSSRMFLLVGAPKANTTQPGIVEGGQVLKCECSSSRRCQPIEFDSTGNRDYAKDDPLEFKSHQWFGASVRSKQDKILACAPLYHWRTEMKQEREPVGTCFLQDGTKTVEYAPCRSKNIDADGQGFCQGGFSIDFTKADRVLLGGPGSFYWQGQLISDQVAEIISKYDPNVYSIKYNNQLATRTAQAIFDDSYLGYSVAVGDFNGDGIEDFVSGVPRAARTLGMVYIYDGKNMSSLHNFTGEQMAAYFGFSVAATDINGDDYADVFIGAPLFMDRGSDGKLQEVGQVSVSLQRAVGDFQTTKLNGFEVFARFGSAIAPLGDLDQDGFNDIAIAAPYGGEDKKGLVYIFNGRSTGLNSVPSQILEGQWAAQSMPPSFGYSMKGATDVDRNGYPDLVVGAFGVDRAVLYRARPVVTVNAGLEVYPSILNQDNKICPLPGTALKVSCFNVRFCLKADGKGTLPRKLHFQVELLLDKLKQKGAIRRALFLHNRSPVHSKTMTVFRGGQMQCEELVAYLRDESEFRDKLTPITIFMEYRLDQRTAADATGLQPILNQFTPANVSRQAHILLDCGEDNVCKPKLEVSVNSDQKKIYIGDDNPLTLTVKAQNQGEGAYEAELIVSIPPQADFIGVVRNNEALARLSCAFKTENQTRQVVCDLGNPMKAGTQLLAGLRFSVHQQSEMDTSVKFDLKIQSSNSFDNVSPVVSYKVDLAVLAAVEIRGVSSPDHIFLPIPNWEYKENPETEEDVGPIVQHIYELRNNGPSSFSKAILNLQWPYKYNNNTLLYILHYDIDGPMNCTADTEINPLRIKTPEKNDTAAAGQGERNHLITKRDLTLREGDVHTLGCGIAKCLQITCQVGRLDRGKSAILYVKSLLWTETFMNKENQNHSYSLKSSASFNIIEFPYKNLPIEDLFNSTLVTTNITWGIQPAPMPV
mouse αvβ1, sequence (P09055 21-728): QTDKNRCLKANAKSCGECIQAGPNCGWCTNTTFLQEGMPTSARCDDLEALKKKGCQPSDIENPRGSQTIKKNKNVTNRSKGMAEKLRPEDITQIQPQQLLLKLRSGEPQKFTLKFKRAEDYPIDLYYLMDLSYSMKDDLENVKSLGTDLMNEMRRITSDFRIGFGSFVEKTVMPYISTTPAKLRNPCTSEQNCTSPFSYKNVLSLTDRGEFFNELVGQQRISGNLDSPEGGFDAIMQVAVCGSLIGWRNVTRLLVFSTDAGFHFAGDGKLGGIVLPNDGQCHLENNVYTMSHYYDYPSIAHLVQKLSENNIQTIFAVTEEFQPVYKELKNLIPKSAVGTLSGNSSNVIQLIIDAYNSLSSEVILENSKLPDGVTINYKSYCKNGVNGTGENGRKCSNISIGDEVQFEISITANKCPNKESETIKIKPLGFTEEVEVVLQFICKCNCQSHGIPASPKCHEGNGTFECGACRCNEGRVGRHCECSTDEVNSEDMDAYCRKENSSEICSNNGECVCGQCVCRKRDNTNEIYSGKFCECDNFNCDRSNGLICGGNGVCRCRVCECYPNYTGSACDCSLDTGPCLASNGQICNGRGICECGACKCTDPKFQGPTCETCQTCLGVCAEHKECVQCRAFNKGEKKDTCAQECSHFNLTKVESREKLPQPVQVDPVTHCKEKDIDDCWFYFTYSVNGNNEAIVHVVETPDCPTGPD

## COc1ccc(C(CC(=O)O)N2CCN(CCCc3ccc4c(n3)NCCC4)C2=O)cn1 (centres unmarked) [MK-0429]
CHOK1-mαvβ3 cells
  Effect on cell adhesion, mouse αvβ3: decreased
CHOK1-mαvβ5 cells
  Effect on cell adhesion, mouse αvβ5: decreased
[1]
  Oral bioavailability: good
Mouse αvβ1
  IC50: 1.3 nM
Human αvβ8; Fig. 3D, assay optimisation, read-out: IC50 human αvβ8 AlphaLISA
  IC50: 58.3 nM
Human αvβ8; Fig. 4B, read-out: IC50 Human integrin AlphaLISA assays: hαvβ8
  IC50: 3.1 nM
Human αvβ6; Fig. 3D, assay optimisation, read-out: IC50 human αvβ6 AlphaLISA
  IC50: 3.8 nM
Human αvβ6; Fig. 4B, read-out: IC50 Human integrin AlphaLISA assays: hαvβ6
  IC50: 0.5 nM
Osteoporosis patients
  Safety profile: relatively well-tolerated
[2]
  Proteinuria: reduces
  Renal fibrosis: reduces

— PMC7822819, “Discovery of a new class of integrin antibodies for fibrosis” (Scientific Reports, 2021)
